Key:
EGFR^L858R+T790M+C797S = target: T1, EGFR^L858R+T790M+C797S (Homo sapiens, UniProt P00533, C797S/L858R/T790M); assay: EGFR protein degradation test (Western blot) in Ba/F3 cells expressing mutant EGFR L858R+T790M+C797S (LTC); format: cell-based; conditions: compounds at 0.1 μM and 1 μM, 24 hours, Western blot with EGFR antibody
T1 construct: expressed in transfected cells; host or cells: Ba/F3
How it was run: (§1)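 Ba/F3 cells expressing wild-type EGFR, del19+T790M+C797S or L858R+T790M+C797S EGFR were treated with compound at 0.1 μM and 1 μM for 24 h. Lysates (30 μg) were analysed by SDS-PAGE and EGFR Western blot, with bands quantified densitometrically.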

EGFR^del19+T790M+C797S = assay: EGFR protein degradation test (Western blot) in Ba/F3 cells expressing mutant EGFR del19+T790M+C797S (DTC); format: cell-based; conditions: compounds at 0.1 μM and 1 μM, 24 hours, Western blot with EGFR antibody
How it was run: as §1

T1 sequence (P00533 25-1210 T790M/C797S/L858R): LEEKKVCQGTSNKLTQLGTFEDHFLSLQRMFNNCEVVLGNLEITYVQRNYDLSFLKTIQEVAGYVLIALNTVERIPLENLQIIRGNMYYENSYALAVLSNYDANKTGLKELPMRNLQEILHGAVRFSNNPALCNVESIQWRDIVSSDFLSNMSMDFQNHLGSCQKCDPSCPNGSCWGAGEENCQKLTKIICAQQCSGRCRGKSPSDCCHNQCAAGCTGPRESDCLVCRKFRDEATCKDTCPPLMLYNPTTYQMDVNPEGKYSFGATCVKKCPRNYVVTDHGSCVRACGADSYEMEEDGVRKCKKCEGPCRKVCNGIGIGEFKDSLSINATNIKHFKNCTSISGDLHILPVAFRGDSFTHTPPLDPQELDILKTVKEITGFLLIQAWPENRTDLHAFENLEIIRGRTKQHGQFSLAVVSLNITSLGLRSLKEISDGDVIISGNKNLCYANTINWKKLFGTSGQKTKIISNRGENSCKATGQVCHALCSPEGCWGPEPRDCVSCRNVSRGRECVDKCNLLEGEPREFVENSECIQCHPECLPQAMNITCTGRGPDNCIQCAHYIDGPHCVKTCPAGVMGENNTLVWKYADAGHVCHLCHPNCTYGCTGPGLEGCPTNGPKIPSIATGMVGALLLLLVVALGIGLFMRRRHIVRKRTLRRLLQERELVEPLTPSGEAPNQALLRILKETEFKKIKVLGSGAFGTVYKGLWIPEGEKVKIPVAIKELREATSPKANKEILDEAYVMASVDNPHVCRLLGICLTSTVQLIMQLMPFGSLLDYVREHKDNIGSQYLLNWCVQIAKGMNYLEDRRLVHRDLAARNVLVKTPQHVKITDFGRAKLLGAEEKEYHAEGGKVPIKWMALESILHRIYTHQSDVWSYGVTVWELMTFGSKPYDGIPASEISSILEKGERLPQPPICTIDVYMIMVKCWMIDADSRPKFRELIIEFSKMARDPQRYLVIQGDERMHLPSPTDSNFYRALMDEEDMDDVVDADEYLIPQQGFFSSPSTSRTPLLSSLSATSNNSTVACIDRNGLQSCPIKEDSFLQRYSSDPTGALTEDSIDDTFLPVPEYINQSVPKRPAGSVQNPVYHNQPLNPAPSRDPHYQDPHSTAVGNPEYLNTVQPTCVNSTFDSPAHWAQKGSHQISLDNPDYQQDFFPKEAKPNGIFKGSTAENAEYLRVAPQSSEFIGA

SMILES	LTC (EGFR^L858R+T790M+C797S) protein degradation (EGFR^L858R+T790M+C797S)	DTC (EGFR^del19+T790M+C797S) protein degradation (EGFR^del19+T790M+C797S)
COc1cc(N2CCN(CC3CCN(Cc4ccc5c(c4)C(=O)N(C4CCC(=O)NC4=O)C5=O)CC3)CC2)ccc1Nc1ncc(Cl)c(Nc2ccccc2N(C)S(C)(=O)=O)n1 (stereo not drawn) [Compound 41, N-(2-((5-chloro-2-((4-(4-((1-((2-(2,6-dioxopiperidin-3-yl)-1,3-dioxoisoindolin-5-yl)methyl)piperidin-4-yl)methyl)piperazin-1-yl)-2-methoxyphenyl)amino)pyrimidin-4-yl)amino)phenyl)-N-methylmethanesulfonamide]	− (Protein degradation < 20%)	− (Protein degradation < 20%)
CN(c1ccccc1Nc1nc(Nc2ccc(N3CCC(N4CCN(Cc5ccc6c(c5)C(=O)N(C5CCC(=O)NC5=O)C6=O)CC4)CC3)c(F)c2)ncc1Cl)S(C)(=O)=O (stereo not drawn) [Compound 42, N-(2-((5-chloro-2-((4-(4-(4-((2-(2,6-dioxopiperidin-3-yl)-1,3-dioxoisoindolin-5-yl)methyl)piperazin-1-yl)piperidin-1-yl)-3-fluorophenyl)amino)pyrimidin-4-yl)amino)phenyl)-N-methylmethanesulfonamide]	− (Protein degradation < 20%)	+ (Protein degradation 20~80%)
COc1cc(N2CCC(N3CCN(C[C@@H]4CCCN4c4ccc5c(c4)C(=O)N(C4CCC(=O)NC4=O)C5=O)CC3)CC2)ccc1Nc1ncc(Cl)c(Nc2ccccc2N(C)S(C)(=O)=O)n1 (stereo partly drawn) [Compound 44, N-(2-((5-chloro-2-((4-(4-(4-(((2S)-1-(2-(2,6-dioxopiperidin-3-yl)-1,3-dioxoisoindolin-5-yl)pyrrolidin-2-yl)methyl)piperazin-1-yl)piperidin-1-yl)-2-methoxyphenyl)amino)pyrimidin-4-yl)amino)phenyl)-N-methylmethanesulfonamide]	+ (Protein degradation 20~80%)	− (Protein degradation < 20%)
CN(c1ccccc1Nc1nc(Nc2ccc(N3CCN(CC4CCN(CCOc5cccc6c5C(=O)N(C5CCC(=O)NC5=O)C6=O)CC4)CC3)c(F)c2)ncc1Cl)S(C)(=O)=O (stereo not drawn) [Compound 46, N-(2-((5-chloro-2-((4-(4-((1-(2-((2-(2,6-dioxopiperidin-3-yl)-1,3-dioxoisoindolin-4-yl)oxy)ethyl)piperidin-4-yl)methyl)piperazin-1-yl)-3-fluorophenyl)amino)pyrimidin-4-yl)amino)phenyl)-N-methylmethanesulfonamide]	+ (Protein degradation 20~80%)	+ (Protein degradation 20~80%)
COc1cc(N2CCC(CN3CCC(C(=O)Nc4cccc5c4CN(C4CCC(=O)NC4=O)C5=O)CC3)CC2)ccc1Nc1ncc(Cl)c(Nc2ccccc2N(C)S(C)(=O)=O)n1 (stereo not drawn) [Compound 49, 1-((1-(4-((5-chloro-4-((2-(N-methylmethylsulfonamido)phenyl)amino)pyrimidin-2-yl)amino)-3-methoxyphenyl)piperidin-4-yl)methyl)-N-(2-(2,6-dioxopiperidin-3-yl)-1-oxoisoindolin-4-yl)piperidin-4-carboxamide]	− (Protein degradation < 20%)	− (Protein degradation < 20%)
COc1cc(N2CCC3(CCN(CC(=O)Nc4cccc5c4CN(C4CCC(=O)NC4=O)C5=O)CC3)CC2)ccc1Nc1ncc(Cl)c(Nc2ccccc2N(C)S(C)(=O)=O)n1 (stereo not drawn) [Compound 50, 2-(9-(4-((5-chloro-4-((2-(N-methylmethylsulfonamido)phenyl)amino)pyrimidin-2-yl)amino)-3-methoxyphenyl)-3,9-diazaspiro[5.5]undecan-3-yl)-N-(2-(2,6-dioxopiperidin-3-yl)-1-oxoisoindolin-4-yl)acetamide]	− (Protein degradation < 20%)	+ (Protein degradation 20~80%)
COc1cc(N2CCC(N3CCN(CCOc4cccc5c4C(=O)N(C4CCC(=O)NC4=O)C5=O)CC3)CC2)ccc1Nc1ncc(Cl)c(Nc2ccccc2N(C)S(C)(=O)=O)n1 (stereo not drawn) [Compound 52, N-(2-((5-chloro-2-((4-(4-(4-(2-((2-(2,6-dioxopiperidin-3-yl)-1,3-dioxoisoindolin-4-yl)oxy)ethyl)piperazin-1-yl)piperidin-1-yl)-2-methoxyphenyl)amino)pyrimidin-4-yl)amino)phenyl)-N-methylmethanesulfonamide]	− (Protein degradation < 20%)	+ (Protein degradation 20~80%)
COc1cc(N2CCN(CC3CCN(CCOc4cccc5c4C(=O)N(C4CCC(=O)NC4=O)C5=O)CC3)CC2)ccc1Nc1ncc(Cl)c(Nc2ccccc2N(C)S(C)(=O)=O)n1 (stereo not drawn) [Compound 57, N-(2-((5-chloro-2-((4-(4-((1-(2-((2-(2,6-dioxopiperidin-3-yl)-1,3-dioxoisoindolin-4-yl)oxy)ethyl)piperidin-4-yl)methyl)piperazin-1-yl)-2-methoxyphenyl)amino)pyrimidin-4-yl)amino)phenyl)-N-methylmethanesulfonamide]	− (Protein degradation < 20%)	− (Protein degradation < 20%)
COc1cc(N2CCC(N3CCN(CCNc4ccc5c(c4)C(=O)N(C4CCC(=O)NC4=O)C5=O)CC3)CC2)ccc1Nc1ncc(Cl)c(Nc2ccccc2N(C)S(C)(=O)=O)n1 (stereo not drawn) [Compound 58, N-(2-((5-chloro-2-((4-(4-(4-(2-((2-(2,6-dioxopiperidin-3-yl)-1,3-dioxoisoindolin-5-yl)amino)ethyl)piperazin-1-yl)piperidin-1-yl)-2-methoxyphenyl)amino)pyrimidin-4-yl)amino)phenyl)-N-methylmethanesulfonamide]	+ (Protein degradation 20~80%)	− (Protein degradation < 20%)
COc1cc(N2CCN(CC3CCN(CC4CCN(c5ccc6c(c5)C(=O)N(C5CCC(=O)NC5=O)C6=O)CC4)CC3)CC2)ccc1Nc1ncc(Cl)c(Nc2ccccc2N(C)S(C)(=O)=O)n1 (stereo not drawn) [Compound 59, N-(2-((5-chloro-2-((4-(4-((1-((1-(2-(2,6-dioxopiperidin-3-yl)-1,3-dioxoisoindolin-5-yl)piperidin-4-yl)methyl)piperidin-4-yl)methyl)piperazin-1-yl)-2-methoxyphenyl)amino)pyrimidin-4-yl)amino)phenyl)-N-methylmethanesulfonamide]	+ (Protein degradation 20~80%)	++ (Protein degradation > 80%)
COc1cc(N2CCC(N3CCN(CC4CN(c5ccc6c(c5)C(=O)N(C5CCC(=O)NC5=O)C6=O)C4)CC3)CC2)ccc1Nc1ncc(Cl)c(Nc2ccccc2N(C)S(C)(=O)=O)n1 (stereo not drawn) [Compound 60, N-(2-((5-chloro-2-((4-(4-(4-((1-(2-(2,6-dioxopiperidin-3-yl)-1,3-dioxoisoindolin-5-yl)azetidin-3-yl)methyl)piperazin-1-yl)piperidin-1-yl)-2-methoxyphenyl)amino)pyrimidin-4-yl)amino)phenyl)-N-methylmethanesulfonamide]	++ (Protein degradation > 80%)	− (Protein degradation < 20%)
COc1cc(N2CCN(CC3CCN(CC4CN(c5ccc6c(c5)C(=O)N(C5CCC(=O)NC5=O)C6=O)C4)CC3)CC2)ccc1Nc1ncc(Cl)c(Nc2ccccc2N(C)S(C)(=O)=O)n1 (stereo not drawn) [Compound 61, N-(2-((5-chloro-2-((4-(4-((1-((1-(2-(2,6-dioxopiperidin-3-yl)-1,3-dioxoisoindolin-5-yl)azetidin-3-yl)methyl)piperidin-4-yl)methyl)piperazin-1-yl)-2-methoxyphenyl)amino)pyrimidin-4-yl)amino)phenyl)-N-methylmethanesulfonamide]	+ (Protein degradation 20~80%)	− (Protein degradation < 20%)
COc1cc(N2CCC(CN3CCC(CNc4cccc5c4C(=O)N(C4CCC(=O)NC4=O)C5=O)CC3)CC2)ccc1Nc1ncc(Cl)c(Nc2ccccc2N(C)S(C)(=O)=O)n1 (stereo not drawn) [Compound 62, N-(2-((5-chloro-2-((4-(4-((4-(((2-(2,6-dioxopiperidin-3-yl)-1,3-dioxoisoindolin-4-yl)amino)methyl)piperidin-1-yl)methyl)piperidin-1-yl)-2-methoxyphenyl)amino)pyrimidin-4-yl)amino)phenyl)-N-methylmethanesulfonamide]	++ (Protein degradation > 80%)	+ (Protein degradation 20~80%)
COc1cc(N2CCC(CN3CCC(CNc4ccc5c(c4)C(=O)N(C4CCC(=O)NC4=O)C5=O)CC3)CC2)ccc1Nc1ncc(Cl)c(Nc2ccccc2N(C)S(C)(=O)=O)n1 (stereo not drawn) [Compound 63, N-(2-((5-chloro-2-((4-(4-((4-(((2-(2,6-dioxopiperidin-3-yl)-1,3-dioxoisoindolin-5-yl)amino)methyl)piperidin-1-yl)methyl)piperidin-1-yl)-2-methoxyphenyl)amino)pyrimidin-4-yl)amino)phenyl)-N-methylmethanesulfonamide]	++ (Protein degradation > 80%)	+ (Protein degradation 20~80%)
COc1cc(N2CCN(CC3CCN(C(=O)CCc4ccc5c(c4)C(=O)N(C4CCC(=O)NC4=O)C5=O)CC3)CC2)ccc1Nc1ncc(Cl)c(Nc2ccccc2N(C)S(C)(=O)=O)n1 (stereo not drawn) [Compound 64, N-(2-((5-chloro-2-((4-(4-((1-(3-(2-(2,6-dioxopiperidin-3-yl)-1,3-dioxoisoindolin-5-yl)propanoyl)piperidin-4-yl)methyl)piperazin-1-yl)-2-methoxyphenyl)amino)pyrimidin-4-yl)amino)phenyl)-N-methylmethanesulfonamide]	+ (Protein degradation 20~80%)	− (Protein degradation < 20%)

Reference: US20230322723A1, “COMPOUNDS FOR SUPPRESSING EGFR MUTANT CANCER AND PHARMACEUTICAL USE THEREOF” (J2H BIOTECH INC., priority 2020, published 2023)
